US10253002B2, “Compounds and methods of treating infections” (Neoculi Pty Ltd., priority 2013, dated 2019)

Key:
[1] = tested on: S. pneumoniae isolates; experiment: Micro-broth dilution MIC, Example 5; type: cell-based, Streptococcus pneumoniae
Protocol: For all in vitro assays, fresh pneumococcal isolates were grown overnight (O/N) on horse blood agar (HBA) plates (39 g/L Columbia blood agar base [Oxoid] 5% [v/v] defribinated horse blood [Oxoid] at 37° C. with 5% supplemented CO2). Mueller-Hinton blood agar with 5% defibrinated sheep blood (MHSBA Roseworthy Media and Blood Service) was used for disk diffusion analysis as directed by Clinical Laboratory Standards Institute (CLSI) standards. Pneumococci were routinely grown in broth consisting of 4% lysed horse blood (LHB) with Cation Adjusted Mueller Hinton Broth (CAHMB, [Difco]) at 37° C. with 5% supplemented CO2. […] Isolates were stored in HSB at −80° C.
(§1) [Micro-broth dilutions and 96 well trays are prepared by the following method: 90 μL of 4% LHB:CAMHB is aliquotted into all wells using a multichannel pipette. 90 μL of working antimicrobial stocks were no serial diluted down the tray by a 1:2 dilution. Negative broth controls and dilution control were taken into account when planning the set up of a 96 well tray.] 10 μL of bacterial suspension was then added to the appropriate wells in the 96 well tray. Appropriate positive (no antimicrobial), negative (no antimicrobial or bacteria) and negative dilution (a serial dilution control of antimicrobial and broth) controls were included in each assay. […] The MBC was determined by a 99.95% inhibition of S. pneumoniae, taking into account the dilution factor. MICs and MBCs were determined in quadruplicate and the mode was taken as the representative value. The MIC50, MIC90 and MIC range and MBC50, MBC90 and MBC range were determined according to CLSI standards. The MIC50 and MIC90, or MBC50 and MBC90, are defined by the lowest concentrations which, when all the MICs and MBCs of the isolates are arranged from lowest to highest, inhibited the 50th and 90th percentile of the total amount of isolates, respectively.

[2] = tested on: S. pneumoniae isolates; experiment: MBC, Example 5; type: cell-based, Streptococcus pneumoniae
Protocol: as §1

[3] = tested on: S. pneumoniae strain D39; experiment: MBC time kill studies (relative MBC at time points); type: cell-based, Streptococcus pneumoniae
Text: MBC kill kinetics assays involved the preparation of three 96 well microtitre trays.

[4] = Visual analysis of solubility in diluents and media, Example 5; type: physicochemical
[5] = tested on: MRSA; experiment: Broth microdilution MIC, Example 7 (NCL812 and analogues); type: cell-based, Staphylococcus aureus
Summary of the method: (§2)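 Values are MICs in μg/ml from broth microdilution per CLSI, with growth scored against a drug-free well.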

[6] = tested on: VRE; experiment: as above; type: cell-based, Enterococcus spp.
Summary of the method: as §2

[7] = tested on: Escherichia coli; experiment: as above; type: cell-based; details: 24 hours; 1st and 2nd replicate rows
[8] = tested on: Pseudomonas aeruginosa; experiment: as above; type: cell-based; details: 24 hours; 1st and 2nd replicate rows
[9] = Bioassay ranking of the analogues tested; details: M + R (MRSA and VRE combined)
[10] = tested on: cell wall synthesis in S. aureus ATCC 29213; experiment: Macromolecular synthesis assay: cell wall synthesis ([14C]N-acetylglucosamine); type: cell-based, Staphylococcus aureus; details: positive control; 8 fold the MIC (2 μg/mL)
Protocol: (§3) Cells were grown at 35° C. overnight on Trypticase Soy agar. A colony from the plate was used to inoculate 10 ml of Mueller Hinton broth II (MHBII), and the culture was grown to early exponential growth phase (OD600==0.2 to 0.3) while incubating in a shaker at 35° C. and 200 rpm.
Bacterial cells in early exponential growth phase were transferred to M9 minimal medium and added to 1.5 mL eppendorf tubes (100 μL/tube) containing various concentrations of test compound or control antibiotics (5 μL) at 20× the final concentration in 100% DMSO as described above. Following a 5 min incubation at 37° C., [^14C]N-acetylglucosamine (0.4 μCi/reaction) was added to each tube and incubated for 45 min in a 37° C. heating block. Reactions were stopped through the addition of 100 μL of 8% SDS to each tube. Reactions were then heated at 95° C. for 30 min in a heating block, cooled, briefly centrifuged, and spotted onto pre-wet HA filters ([…]). After washing three times with 5 mL of 0.1% SDS, the filters were rinsed two times with 5 ml of deionized water, allowed to dry, and then counted using a Beckman LS3801 liquid scintillation counter.

[11] = tested on: S. aureus isolates (HA-MRSA, CA-MRSA, methicillin-susceptible staphylococci); experiment: Kirby-Bauer disc diffusion resistotyping, Example 4; type: cell-based, Staphylococcus aureus; details: for Total isolates resistant (Kirby-Bauer disc diffusion): all isolates (n = 30)
Summary of the method: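 CLSI Kirby-Bauer disc diffusion on Mueller-Hinton agar. Overnight SBA cultures (37 °C) were suspended in saline and adjusted to 0.5 McFarland before spreading. Antibiotic discs were read after 24 h at 37 °C.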

[12] = tested on: S. pneumoniae isolates; experiment: Disk diffusion susceptibility (CLSI/EUCAST), Example 5; type: cell-based, Streptococcus pneumoniae
Summary of the method: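 Susceptibility to 12 antimicrobials was categorised (S/I/R) using CLSI breakpoints from zones of complete inhibition, read thrice to the nearest millimetre with the mode taken. Incubation was 16–24 h, 37 °C, 5% CO2.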

[13] = tested on: Staphylococcus pseudintermedius isolates (MSSP and MRSP); experiment: Disk diffusion and Epsilometer susceptibility testing, Example 6; type: cell-based; details: 13 MRSP isolates
[14] = tested on: lipid synthesis in S. aureus ATCC 29213; experiment: Macromolecular synthesis assay: lipid synthesis ([3H] glycerol); type: cell-based, Staphylococcus aureus
Protocol: as §3
Bacterial cells were grown to early exponential growth phase in MHBII broth and added to 1.5 mL eppendorf tubes (in triplicate) containing various concentrations of test compound or control antibiotics as described above. Following a 5 min incubation at room temperature, [^3H] glycerol was added at 0.5 μCi per reaction.
Reactions were allowed to proceed at room temperature for 15 min and then stopped through the addition of 375 μL chloroform/methanol (1:2) followed by vortexing for 20 seconds after each addition. Chloroform (125 μL) was then added to each reaction, vortexed, followed by the addition of 125 μL dH2O and vortexing. Reactions were centrifuged at 13,000 rpm for 10 min, and then 150 μL of the organic phase was transferred to a scintillation vial and allowed to dry in a fume hood for at least 1 hr. Samples were then counted via liquid scintillation counting.

[15] = tested on: ATP release from S. aureus ATCC 29213; experiment: ATP release assay (CellTiter-Glo); type: cell-based, Staphylococcus aureus; details: positive control; 8 fold the MIC (256 μg/mL); 30 min exposure
Protocol: The CellTiter-Glo Luminescent Cell Viability Assay (Promega) was utilized to measure the leakage of ATP from bacteria. […] The negative control received 2% DMSO, which represented the final DMSO concentration in each assay. After a 30 min exposure to drug, cells were sedimented by centrifugation and the supernatant was analyzed for the presence of ATP. Results were expressed as ATP concentration released to the medium (μM).

[16] = isolate WCH158, Table 22, CAMHB diluent for NCL062

## C/C(=N\NC(=N)N/N=C(\C)c1ccc(Cl)cc1)c1ccc(Cl)cc1.Cl [NCL062]
[1]; A66.1
  MIC: 8 mg/L
[1]; D39
  MIC: 2 mg/L
[1]; D39, 4% LHB:CAMHB
  Relative MIC with media type for D39: 4 mg/L
[1]; D39, 10% horse serum-supplemented broth
  Relative MIC with media type for D39: 32 mg/L
[1]; EF3030
  MIC: 16 mg/L
[1]; L82016
  MIC: 8 mg/L
[1]; P9
  MIC: 4 mg/L
[1]; P21
  MIC: 4 mg/L
[1]; Storage condition 4° C.
  MIC of D39, stored pre-prepared micro-titer trays: 4 mg/L
[1]; Storage condition −2° C.
  MIC of D39, stored pre-prepared micro-titer trays: 4 mg/L
[1]; TIGR4
  MIC: 8 mg/L
[1]; WCH16
  MIC: 32 mg/L
[1]; WCH43
  MIC: 2 mg/L
[1]; WCH46
  MIC: 32 mg/L
[1]; WCH57
  MIC: 4 mg/L
[1]; WCH77
  MIC: 8 mg/L
[1]; WCH86
  MIC: 4 mg/L
[1]; WCH89
  MIC: 4 mg/L
[1]; WCH92
  MIC: 8 mg/L
[1]; WCH137
  MIC: 2 mg/L
[1]; WCH158
  MIC: 16 mg/L
[1]; WCH184
  MIC: 16 mg/L
[1]; WCH211
  MIC: 2 mg/L
[1]; WU2
  MIC: 16 mg/L
[1]; all S. pneumoniae isolates
  MIC50: 8 mg/L
  MIC90: 32 mg/L
  MIC range: 2 to 32 mg/L
[1]; isolate A66.1, Table 22, CAMHB diluent for NCL062
  MIC: Confluent
[1]; isolate D39, Table 22, CAMHB diluent for NCL062
  MIC: Confluent
[1]; isolate P21, Table 22, CAMHB diluent for NCL062
  MIC: Confluent
[1]; isolate WCH57, Table 22, CAMHB diluent for NCL062
  MIC: Confluent
[1]; [16]
  MIC: Confluent
[1]; isolate WU-2, Table 22, CAMHB diluent for NCL062
  MIC: Confluent
[2]; A66.1
  MBC: 32 mg/L
[2]; D39
  MBC: 4 mg/L
[2]; EF3030
  MBC: 16 mg/L
[2]; L82016
  MBC: 32 mg/L
[2]; P9
  MBC: 16 mg/L
[2]; P21
  MBC: 4 mg/L
[2]; TIGR4
  MBC: 8 mg/L
[2]; WCH16
  MBC: 32 mg/L
[2]; WCH43
  MBC: 4 mg/L
[2]; WCH46
  MBC: 32 mg/L
[2]; WCH57
  MBC: 8 mg/L
[2]; WCH77
  MBC: 8 mg/L
[2]; WCH86
  MBC: 8 mg/L
[2]; WCH89
  MBC: 4 mg/L
[2]; WCH92
  MBC: 8 mg/L
[2]; WCH137
  MBC: 4 mg/L
[2]; WCH158
  MBC: 16 mg/L
[2]; WCH184
  MBC: 16 mg/L
[2]; WCH211
  MBC: 4 mg/L
[2]; WU2
  MBC: 64 mg/L
[2]; all S. pneumoniae isolates
  MBC50: 16 mg/L
  MBC90: 32 mg/L
  MBC Range: 4 to 64 mg/L
[2]; [16]
  MBC: 64 mg/L
[3]; between 24 and 48 h
  constant bactericidal concentration: 4 µg/mL
[3]; within the first 10 min of administration
  immediate MBC: 8 mg/L
[4]; Diluent CAMHB
  Visual analysis of solubility: Transparent
[4]; Diluent DMSO
  Visual analysis of solubility: Precipitate
[4]; Diluent PBS
  Visual analysis of solubility: Precipitate
[4]; Media 4% LHB:CAMHB
  Visual analysis of solubility: Transparent
[4]; Media 10% horse serum-supplemented broth
  Visual analysis of solubility: Transparent
[5]; MIC testing, two MRSA strains
  activity against MRSA among analogues: greatest activity
[5]; bioassay ranking, MRSA
  MRSA: 3 µg/mL
[5]; isolate MRSA 1, 24 hours, 1st and 2nd replicate rows
  MIC (μg/ml) at 24 hours, MRSA 1: 2 µg/mL
[5]; isolate MRSA 2, 24 hours, 1st and 2nd replicate rows
  MIC (μg/ml) at 24 hours, MRSA 2: 4 µg/mL
[6]; MIC testing, two VRE strains
  activity against VRE among analogues: greatest activity
[6]; bioassay ranking, VRE
  VRE: 1.5 µg/mL
[6]; isolate VRE 1, 24 hours, 1st and 2nd replicate rows
  MIC (μg/ml) at 24 hours, VRE 1: 2 µg/mL
[6]; isolate VRE 2, 24 hours, 1st and 2nd replicate rows
  MIC (μg/ml) at 24 hours, VRE 2: 1 µg/mL
[7]
  MIC (μg/ml) at 24 hours, E. coli: >128 µg/mL
[8]
  MIC (μg/ml) at 24 hours, P. aeruginosa: >128 µg/mL
[9]
  M + R: 2.25 µg/mL

## CN[C@H](CC(C)C)C(=O)N[C@H]1C(=O)N[C@@H](CC(N)=O)C(=O)N[C@H]2C(=O)N[C@H]3C(=O)N[C@H](C(=O)N[C@H](C(=O)O)c4cc(O)cc(O)c4-c4cc3ccc4O)[C@H](O)c3ccc(c(Cl)c3)Oc3cc2cc(c3O[C@@H]2O[C@H](CO)[C@@H](O)[C@H](O)[C@H]2O[C@H]2C[C@](C)(N)[C@H](O)[C@H](C)O2)Oc2ccc(cc2Cl)[C@H]1O [Vancomycin]
[10]
  inhibition of cell wall synthesis: 96%
[11]; CA-MRSA (n = 10)
  isolates resistant (Kirby-Bauer disc diffusion): 0.00%
[11]; HA-MRSA (n = 10)
  isolates resistant (Kirby-Bauer disc diffusion): 0.00%
[11]; Methicillin-susceptible staphylococci (n = 10)
  isolates resistant (Kirby-Bauer disc diffusion): 0.00%
[11]
  Total isolates resistant (Kirby-Bauer disc diffusion): 0.00%
[11]; listed as vancomycin
  Total isolates resistant (Kirby-Bauer disc diffusion): None of the isolates tested were vancomycin resistant
[12]; A66.1
  disk diffusion zone diameter: 25 mm
[12]; D39
  disk diffusion zone diameter: 22 mm
[12]; EF3030
  disk diffusion zone diameter: 22 mm
[12]; L82016
  disk diffusion zone diameter: 23 mm
[12]; P9
  disk diffusion zone diameter: 21 mm
[12]; P21
  disk diffusion zone diameter: 21 mm
[12]; TIGR4
  disk diffusion zone diameter: 22 mm
[12]; WCH16
  disk diffusion zone diameter: 23 mm
[12]; WCH43
  disk diffusion zone diameter: 20 mm
[12]; WCH46
  disk diffusion zone diameter: 21 mm
[12]; WCH57
  disk diffusion zone diameter: 28 mm
[12]; WCH77
  disk diffusion zone diameter: 24 mm
[12]; WCH86
  disk diffusion zone diameter: 22 mm
[12]; WCH89
  disk diffusion zone diameter: 25 mm
[12]; WCH92
  disk diffusion zone diameter: 22 mm
[12]; WCH137
  disk diffusion zone diameter: 24 mm
[12]; WCH158
  disk diffusion zone diameter: 22 mm
[12]; WCH184
  disk diffusion zone diameter: 23 mm
[12]; WCH211
  disk diffusion zone diameter: 23 mm
[12]; WU2
  disk diffusion zone diameter: 21 mm
[13]
  MRSP isolates susceptible: 77%

## C/C=C/C/C=C/CCC(=O)[C@H]1O[C@H]1C(N)=O [cerulenin, Cerulenin, reference compound]
[14]
  inhibition of lipid synthesis: 72%

## Polymyxin B [reference compound]
[15]
  maximal ATP release: approximately 0.34 μM
